Measurements taken from US6544984B1, “2,3,4,5-tetrahydro-1H-(1,4)benzodiazepine-3-hydroxamic acids” (American Cyanamid Company, priority 1999, dated 2003).
Where two headings read alike, the source gives them in different places.

Key:
MMP-9 = biological target: T1, MMP-9 (Homo sapiens, UniProt P14780); experiment: In vitro gelatinase assay (thiopeptide substrate, DTNB); assay type: biochemical; conditions: human neutrophil gelatinase B
T1 construct: human neutrophil gelatinase B; from tissue; host or cells: human neutrophils
Experimental: In Vitro Gelatinase Assay
The assay is based on the cleavage of the thiopeptide substrate ((Ac-Pro-Leu-Gly(2-mercapto-4-methyl-pentanoyl)-Leu-Gly-OEt), available from Bachem Bioscience) by the enzyme gelatinase, releasing the substrate product which reacts calorimetrically with DTNB ((5,5′-dithio-bis(2-nitro-benzoic acid)). This assay is disclosed in Weingarten et al., “Spectrophotometric Assay for Vertebrate Collegenase”, Anal. Biochem., 147:437-440, (1985). The enzyme activity is measured by the rate of the color increase.
The thiopeptide substrate was made up fresh as a 20 mM stock in 100% DMSO and the DTNB was dissolved in 100% DMSO as a 100 mM stock and stored in the dark at room temperature. The substrate and the DTNB were diluted together to 1 mM with substrate buffer (50 mM HEPES, pH 7.5, 5 mM CaCl2) before use. The stock of human neutrophil gelatinase B was diluted with assay buffer (50 mM HEPES, pH 7.5, 5 mM CaCl2, 0.02% Brij) to a final concentration of 0.15 nM.
The assay buffer, enzyme, DTNB/substrate (500 μM final concentration) and vehicle or inhibitor were added to a 96 well plate (total reaction volume of 200 μl) and the increase in color was monitored spectrophotometrically for 5 minutes at 405 nm on a plate reader.
The increase in OD405 was plotted and the slope of the line was calculated. The slope represents the reaction rate. The linearity of the reaction rate was confirmed (r^2>0.85) and the mean (x±sem) of the control rate was calculated and compared for statistical significance (p<0.05) with drug-treated rates using Dunnett's multiple comparison test.

MMP-1 = biological target: T2, MMP-1 (Homo sapiens, UniProt P03956); experiment: In vitro collagenase assay (fluorogenic peptide substrate); assay type: biochemical; conditions: human recombinant fibroblast collagenase
T2 construct: human recombinant fibroblast collagenase (truncated, mw=18,828)
T2 sequence (P03956 100-269 limits assumed): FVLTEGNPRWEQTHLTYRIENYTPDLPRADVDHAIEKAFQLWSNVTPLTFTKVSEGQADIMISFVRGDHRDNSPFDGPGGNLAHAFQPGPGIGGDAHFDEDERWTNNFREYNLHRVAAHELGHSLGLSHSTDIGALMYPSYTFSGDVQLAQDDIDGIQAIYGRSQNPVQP
From the text: In Vitro Collagenase Assay
This assay was based on the cleavage of a peptide substrate ((Dnp-Pro-Cha-Gly-Cys(Me)-His-Ala-Lys(NMa)-NH2), available from Peptide International, Inc.) by collagenase releasing the fluorescent NMa group which was quantitated on the fluorometer as disclosed in Bickett et al., “A High Throughput Fluorogenic Substrate for Interstitial Collagenase (MMP-1) and Gelatinase (MMP-9)”, Anal. Biochem., 212:58-64, (1993). Dnp quenches the NMa fluorescence in the intact substrate.
The assay was run in HCBC assay buffer (50 mM HEPES, pH 7.0, 5 mM Ca^+2, 0.02% Brij, 0.5% Cysteine), with human recombinant fibroblast collagenase (truncated, mw=18,828, from Wyeth-Ayerst Research, Radnor, Pa.). The substrate was dissolved in methanol and stored frozen in 1 mM aliquots. Collagenase was stored frozen in buffer in 25 μM aliquots. In conducting the assay, the substrate was dissolved in HCBC buffer to a final concentration of 10 μM and collagenase to a final concentration of 5 nM. The compounds being examined were dissolved in methanol, DMSO, or HCBC. The methanol and DMSO were diluted in HCBC to <1.0%. The compounds were added to a 96 well plate containing enzyme and the reaction was started by the addition of substrate.
(§1) The reaction was read (excitation 340 nm, emission 444 nm) for 10 min. and the increase in fluorescence over time was plotted as a linear line. The slope of the line was calculated representing the reaction rate. The linearity of the reaction rate was confirmed (r^2>0.85). The mean (x±sem) of the control rate was calculated and compared for statistical significance (p<0.05) with drug-treated rates using Dunnett's multiple comparison test.

MMP-13 = MMP-13 (Homo sapiens, UniProt P45452); experiment: MMP-13 inhibition; assay type: biochemical
TACE = biological target: T3, TACE (Homo sapiens, UniProt P78536); experiment: Procedure for measuring TACE inhibition (fluorescent peptidyl substrate); assay type: biochemical
T3 construct: purchased Immunex
Experimental: Procedure for Measuring TACE Inhibition
The plates were incubated for 10 minutes at room temperature. The reaction was initiated by addition of a fluorescent peptidyl substrate (final concentration 100 μM) to each well with shaking on a shaker for 5 sec.
as §1, with “420” for “444”, “and this represents” for “representing”, “The linearity of the reaction rate was confirmed (r^2>0.85).” left out

T3 sequence (P78536 215-824): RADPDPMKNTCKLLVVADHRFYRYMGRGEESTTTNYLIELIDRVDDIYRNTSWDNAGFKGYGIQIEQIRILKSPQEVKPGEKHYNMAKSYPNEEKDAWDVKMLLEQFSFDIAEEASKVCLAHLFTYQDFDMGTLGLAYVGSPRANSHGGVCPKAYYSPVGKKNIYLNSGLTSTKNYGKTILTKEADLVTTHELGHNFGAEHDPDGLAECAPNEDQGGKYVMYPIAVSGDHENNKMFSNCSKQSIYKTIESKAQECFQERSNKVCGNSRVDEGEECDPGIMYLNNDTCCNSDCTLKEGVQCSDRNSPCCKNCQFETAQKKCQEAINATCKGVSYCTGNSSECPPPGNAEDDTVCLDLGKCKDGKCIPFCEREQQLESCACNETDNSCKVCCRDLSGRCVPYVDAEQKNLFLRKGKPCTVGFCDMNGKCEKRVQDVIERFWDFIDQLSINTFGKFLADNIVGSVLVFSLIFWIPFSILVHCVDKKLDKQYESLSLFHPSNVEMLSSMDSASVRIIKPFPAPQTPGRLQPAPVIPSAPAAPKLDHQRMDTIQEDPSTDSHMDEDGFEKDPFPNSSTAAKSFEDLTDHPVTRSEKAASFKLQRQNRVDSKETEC
T1 sequence (P14780 94-707): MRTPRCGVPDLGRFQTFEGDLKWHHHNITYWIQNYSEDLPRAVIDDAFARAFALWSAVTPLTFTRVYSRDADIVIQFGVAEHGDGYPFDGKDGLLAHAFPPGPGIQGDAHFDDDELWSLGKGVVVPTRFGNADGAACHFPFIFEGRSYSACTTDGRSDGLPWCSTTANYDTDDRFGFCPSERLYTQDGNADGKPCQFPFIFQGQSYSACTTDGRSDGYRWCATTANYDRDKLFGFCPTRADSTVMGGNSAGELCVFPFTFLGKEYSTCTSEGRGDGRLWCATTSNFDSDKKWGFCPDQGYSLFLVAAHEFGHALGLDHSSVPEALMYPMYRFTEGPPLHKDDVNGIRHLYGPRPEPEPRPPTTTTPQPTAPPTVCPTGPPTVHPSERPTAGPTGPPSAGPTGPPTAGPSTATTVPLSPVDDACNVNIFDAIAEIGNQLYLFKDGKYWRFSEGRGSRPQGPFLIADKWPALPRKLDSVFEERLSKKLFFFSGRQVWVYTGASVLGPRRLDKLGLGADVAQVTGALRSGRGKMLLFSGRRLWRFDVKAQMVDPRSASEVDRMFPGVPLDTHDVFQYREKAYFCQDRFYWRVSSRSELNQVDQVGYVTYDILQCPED

CC#CCOc1ccc(S(=O)(=O)N2Cc3ccccc3N(C(C)=O)CC2C(=O)NO)cc1 (centres unmarked) [Example 1, 1-Acetyl-4-(4-but-2-ynyloxbenzenesulfonyl)-2,3,4,5-tetrahydro-1H-[1,4]benzodiazepine-3-carboxylic acid, hydroxyamide]
IC50 (MMP-9): 228 nM
IC50 (MMP-1): 835 nM
IC50 (MMP-13; read-out: IC50 (nM) MMP-13): 77 nM
IC50 (TACE; read-out: IC50 (nM) TACE): 16 nM

CC#CCOc1ccc(S(=O)(=O)N2Cc3ccccc3N(C(=O)c3cccs3)CC2C(=O)NO)cc1 (centres unmarked) [Example 2, 4-(4-But-2-ynyloxybenzenesulfonyl)-1-(2-thienylcarbonyl)-2,3,4,5-tetrahydro-1H-[1,4]benzodiazepine-3-carboxylic acid, hydroxyamide]
IC50 (MMP-9): 24 nM
IC50 (MMP-1): 250 nM
IC50 (MMP-13; read-out: IC50 (nM) MMP-13): 8 nM
IC50 (TACE; read-out: IC50 (nM) TACE): 38 nM

CC#CCOc1ccc(S(=O)(=O)N2Cc3ccccc3N(C(=O)c3ccccc3)CC2C(=O)NO)cc1 (centres unmarked) [Example 3, 1-Benzoyl-4-(4-but-2-ynyloxybenzenesulfonyl)-2,3,4,5-tetrahydro-1H-[1,4]-benzodiazepine-3-carboxylic acid, hydroxyamide]
IC50 (MMP-13; read-out: IC50 (nM) MMP-13): 10 nM

CC#CCOc1ccc(S(=O)(=O)N2Cc3ccccc3N(C(=O)c3ccco3)CC2C(=O)NO)cc1 (centres unmarked) [Example 57, 4-(4-But-2-ynyloxybenzenesulfonyl)-1-(2-furanylcarbonyl)-2,3,4,5-tetrahydro-1H-[1,4]benzodiazepine-3-carboxylic acid hydroxyamide]
IC50 (MMP-9): 2 nM
IC50 (MMP-1): 125 nM
IC50 (MMP-13): 7 nM
melting point: 119 to 120 °C
IC50 (TACE): 33 nM

CC#CCOc1ccc(S(=O)(=O)N2Cc3ccccc3N(C(=O)C3CC3)CC2C(=O)NO)cc1 (centres unmarked) [Example 58, 1-Cyclopropylcarbonyl-4-(4-but-ynyloxybenzenesulfonyl)-2,3,4,5-tetrahydro-1H-[1,4]benzodiazepine-3-carboxylic acid, hydorxyamide]
IC50 (MMP-9): 33 nM
IC50 (MMP-1): 841 nM
IC50 (MMP-13; read-out: IC50 (nM) MMP-13): 29 nM
